In ChEMBL document CHEMBL1132775, “N1-(Benzenesulfonyl)tryptamines as novel 5-HT6 antagonists” (Bioorg Med Chem Lett, 2000):

Assays:
[1] = target: T1, 5-hydroxytryptamine receptor 6 (Homo sapiens, UniProt P50406); assay: Binding affinity against human 5-hydroxytryptamine 6 receptor stably transfected to HEK 293 human embryonic kidney cells using [3H]-lysergic acid diethylamide as radioligand; format: cell-based, HEK293
[2] = target: 5-hydroxytryptamine receptor 1B (Homo sapiens, UniProt P28222); assay: Compound was evaluated for its binding affinity for human 5-hydroxytryptamine 1B receptor
Sequence of 5-hydroxytryptamine receptor 1B (P28222 whole entry): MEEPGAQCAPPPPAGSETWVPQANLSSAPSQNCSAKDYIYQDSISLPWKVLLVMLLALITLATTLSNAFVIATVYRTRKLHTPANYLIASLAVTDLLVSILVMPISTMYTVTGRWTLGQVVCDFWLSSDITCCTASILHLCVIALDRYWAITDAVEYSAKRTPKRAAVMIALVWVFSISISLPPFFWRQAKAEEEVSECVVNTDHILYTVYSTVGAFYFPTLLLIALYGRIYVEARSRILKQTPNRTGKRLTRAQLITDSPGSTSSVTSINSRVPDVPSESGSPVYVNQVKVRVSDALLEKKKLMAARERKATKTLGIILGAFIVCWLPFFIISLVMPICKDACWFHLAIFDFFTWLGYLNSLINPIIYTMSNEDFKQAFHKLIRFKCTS

[3] = target: 5-hydroxytryptamine receptor 1E (Homo sapiens, UniProt P28566); assay: Compound was evaluated for its binding affinity for human 5-hydroxytryptamine 1E receptor
Sequence of 5-hydroxytryptamine receptor 1E (P28566 whole entry): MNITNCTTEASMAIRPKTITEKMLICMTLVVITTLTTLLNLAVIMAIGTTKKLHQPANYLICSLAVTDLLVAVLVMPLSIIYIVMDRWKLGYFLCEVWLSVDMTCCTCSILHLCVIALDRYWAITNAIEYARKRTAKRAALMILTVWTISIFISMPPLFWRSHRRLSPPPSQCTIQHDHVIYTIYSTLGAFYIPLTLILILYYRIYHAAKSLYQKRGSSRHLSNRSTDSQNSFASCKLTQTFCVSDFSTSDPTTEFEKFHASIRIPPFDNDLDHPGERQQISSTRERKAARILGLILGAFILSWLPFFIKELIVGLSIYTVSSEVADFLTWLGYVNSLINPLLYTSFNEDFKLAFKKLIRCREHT

[4] = target: 5-hydroxytryptamine receptor 2A (Rattus norvegicus, UniProt P14842); assay: Compound was evaluated for its binding affinity for rat 5-hydroxytryptamine 2A receptor
Sequence of 5-hydroxytryptamine receptor 2A (P14842 whole entry): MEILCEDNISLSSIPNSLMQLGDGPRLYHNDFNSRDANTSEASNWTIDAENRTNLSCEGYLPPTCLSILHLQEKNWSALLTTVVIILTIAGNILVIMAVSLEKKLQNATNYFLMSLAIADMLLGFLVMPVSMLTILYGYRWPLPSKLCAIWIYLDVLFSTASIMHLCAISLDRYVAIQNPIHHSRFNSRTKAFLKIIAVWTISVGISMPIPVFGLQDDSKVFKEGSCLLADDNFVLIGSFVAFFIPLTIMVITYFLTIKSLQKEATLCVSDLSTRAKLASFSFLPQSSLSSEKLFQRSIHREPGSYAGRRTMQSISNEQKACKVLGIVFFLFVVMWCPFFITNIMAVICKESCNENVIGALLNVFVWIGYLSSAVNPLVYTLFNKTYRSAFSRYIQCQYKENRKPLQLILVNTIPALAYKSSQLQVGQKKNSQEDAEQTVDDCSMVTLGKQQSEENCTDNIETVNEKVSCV

[5] = Compound was evaluated for its binding affinity for human 5-hydroxytryptamine 3 receptor
[6] = target: 5-hydroxytryptamine receptor 7 (Homo sapiens, UniProt P34969); assay: Compound was evaluated for its binding affinity for human 5-hydroxytryptamine 7 receptor
Sequence of 5-hydroxytryptamine receptor 7 (P34969 whole entry): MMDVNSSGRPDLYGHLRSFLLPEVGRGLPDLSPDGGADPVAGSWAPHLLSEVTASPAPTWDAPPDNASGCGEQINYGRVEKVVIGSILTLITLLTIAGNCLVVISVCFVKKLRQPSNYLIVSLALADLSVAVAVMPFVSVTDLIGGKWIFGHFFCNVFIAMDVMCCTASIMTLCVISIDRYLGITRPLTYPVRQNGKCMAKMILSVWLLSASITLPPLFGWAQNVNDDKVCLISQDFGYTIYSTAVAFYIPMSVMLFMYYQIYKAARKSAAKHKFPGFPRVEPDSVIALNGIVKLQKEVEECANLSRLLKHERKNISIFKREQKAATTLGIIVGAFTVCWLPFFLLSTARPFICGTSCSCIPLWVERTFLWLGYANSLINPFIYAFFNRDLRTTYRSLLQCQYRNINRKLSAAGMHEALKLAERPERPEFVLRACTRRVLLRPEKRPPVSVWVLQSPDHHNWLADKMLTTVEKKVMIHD

[7] = target: T2, 5-hydroxytryptamine receptor 2C (Rattus norvegicus, UniProt P08909); assay: Compound was evaluated for its binding affinity for rat 5-hydroxytryptamine 2C receptor
T2 sequence (P08909 whole entry): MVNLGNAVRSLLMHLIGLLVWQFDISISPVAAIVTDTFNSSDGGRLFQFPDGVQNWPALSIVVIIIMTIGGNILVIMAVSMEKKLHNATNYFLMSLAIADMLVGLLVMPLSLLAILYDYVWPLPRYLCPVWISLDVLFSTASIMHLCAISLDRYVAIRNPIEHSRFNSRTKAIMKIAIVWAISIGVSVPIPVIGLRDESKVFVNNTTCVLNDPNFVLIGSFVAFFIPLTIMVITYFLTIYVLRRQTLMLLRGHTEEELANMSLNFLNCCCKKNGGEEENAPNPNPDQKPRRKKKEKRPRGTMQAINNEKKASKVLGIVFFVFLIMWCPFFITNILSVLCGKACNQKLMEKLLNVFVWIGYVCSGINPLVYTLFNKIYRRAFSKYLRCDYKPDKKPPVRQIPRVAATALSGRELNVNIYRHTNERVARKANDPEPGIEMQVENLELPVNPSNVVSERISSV

[8] = target: T1, 5-hydroxytryptamine receptor 6

T1 sequence (P50406 whole entry): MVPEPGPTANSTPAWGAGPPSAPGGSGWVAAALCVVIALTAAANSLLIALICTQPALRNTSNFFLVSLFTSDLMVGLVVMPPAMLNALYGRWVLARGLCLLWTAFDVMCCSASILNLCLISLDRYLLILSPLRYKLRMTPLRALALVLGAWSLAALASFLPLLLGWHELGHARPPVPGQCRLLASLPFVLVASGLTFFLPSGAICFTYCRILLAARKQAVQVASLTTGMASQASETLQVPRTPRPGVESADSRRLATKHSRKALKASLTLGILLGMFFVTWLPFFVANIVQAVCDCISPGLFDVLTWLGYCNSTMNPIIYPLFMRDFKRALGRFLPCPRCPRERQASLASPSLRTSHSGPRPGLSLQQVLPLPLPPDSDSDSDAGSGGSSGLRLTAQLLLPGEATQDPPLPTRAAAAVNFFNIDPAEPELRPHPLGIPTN

| SMILES | Ki [1] | also measured |
| --- | --- | --- |
| COc1ccc(S(=O)(=O)n2cc(CCN(C)C)c3cc(OC)ccc32)cc1 | 8 nM |  |
| COc1ccc2c(c1)c(CCN(C)C)cn2S(=O)(=O)c1cccc2ccccc12 | 0.9 nM |  |
| COc1ccc(OC)c(S(=O)(=O)n2cc(CCN(C)C)c3cc(OC)ccc32)c1 | 1.3 nM |  |
| COc1ccc(OC)c(S(=O)(=O)n2cc(CCN(C)C)c3c(OC)cccc32)c1 | 7.4 nM |  |
| COc1cccc2c(CCN(C)C)cn(S(=O)(=O)c3ccc4ccccc4c3)c12 | 5 nM |  |
| COc1cccc2c(CCN(C)C)cn(S(=O)(=O)c3ccc(Cl)cc3)c12 | 45 nM |  |
| COc1ccc(S(=O)(=O)n2cc(CCN(C)C)c3cccc(OC)c32)cc1 | 93 nM |  |
| COc1ccc(OC)c(S(=O)(=O)n2cc(CCN(C)C)c3cccc(OC)c32)c1 | 183 nM |  |
| COc1ccc(OC)c(S(=O)(=O)n2cc(CCN(C)C)c3ccc(OC)cc32)c1 | 9.5 nM |  |
| COc1ccc2c(c1)c(CCN(C)C)cn2S(=O)(=O)c1ccccc1 | 2.3 nM | Ki [2]: 9210 nM; Ki [3]: 4220 nM; Ki [4]: 130 nM; Ki [5]: 2390 nM; Ki [6]: 600 nM; Ki [7]: 23 nM; pA2 [8]: 8.88 |
| COc1ccc2c(c1)c(CCN(C)C)cn2S(=O)(=O)c1ccc2ccccc2c1 | 1.6 nM |  |
| COc1ccc2c(c1)c(CCN(C)C)cn2S(=O)(=O)c1ccc(Cl)cc1 | 3.1 nM |  |
